Measured values published in US20100330604A1, “QUANTIFICATION OF CHANGES IN THE DEGREES OF ORDER OF CELLULAR AND VIRAL MEMBRANES AND APPLICATIONS TO DIAGNOSIS, TREATMENT AND DRUG SCREENING” (priority 2007, published 2010).
Read-outs that look alike come from different tables or passages of the source.

Legend:
platelets [1] = assay: Di-4-[…] fluorescence and Rf (675/575 nm) by flow cytometry on isolated platelets treated in vitro; type: cell-based
platelets [2] = assay: Spectral flow cytometry of di-4-[…] stained platelets stimulated by soluble agonists; type: cell-based
platelets [3] = assay: Di-4-ANEPPDHQ Rf by flow cytometry on platelets of hyperlipidemic patients before and after atorvastatin; type: in vivo, human; details: after 6-week atorvastatin 40 mg
platelets [4] = details: mean+/-SD
platelets [5] = details: all three patient groups; FIG. 19 panel B
platelets [6] = assay: Shear Induced Platelet activation (SIPA): high Rf platelet subpopulation; type: cell-based
cells = assay: Kinetics of apoptosis after addition of staurosoprine (di-4-[…] staining, flow cytometry); type: cell-based
Text: Cells are detected, identified and segregated according to their size using forward scatter (FSC) and granularity (SSC). A total of 5000-10000 particles are typically analyzed. The excitation light is provided by a 488 nm laser, but could be achieved with lasers having wavelengths between 400 and 500 nm, among other possibilities. The emission fluorescence associated with liquid ordered domains is acquired between 575+/−25 nm, but the bandwidth could be narrower or wider, for example contained between 500 and 600 nm. The emission fluorescence associated with liquid disordered domains is acquired between 675+/−25 nm, but the bandwidth could be narrower or wider, contained for example between 650 and 750 nm.
Amplifications and gains associated with both fluorescences are adjusted on calibrated fluorescent beads or on a control cell population to obtain a ratio of fluorescence and to allow increases or decreases of the fluorescences and of the ratio. The ratio of fluorescence (Rf) is determined for each particle analysed by computing the ratio between the fluorescence intensity at 675 nm and the fluorescence intensity at 575 nm. By plotting FSC or SSC as a function of Rf for all particles on a logarithmic scale graph, the percentage of apoptotic cells can be determined as being the percentage of cells in the studied population having a Rf higher than a control population.

platelets [7] = assay: Di-4-[…] Rf by confocal fluorescent microscopy on platelets; type: cell-based; details: 10 mM, 37° C., 30 min; four donors; p=0.045
Method: Referring to FIG. 3, fluorescence intensities were measured by confocal fluorescent microscopy and flow cytometry on control platelets, cholesterol depleted platelets (10 mM Methyl-β-cyclodextrin, 37° C., 30 min) and cholesterol enriched platelets (2 mM Cholesterol-MCD complex, 37° C., 30 min).
A META confocal fluorescence microscope system (Zeiss, Toronto) was used to measure the intensities of fluorescence between 534 to 599 nm and between 650 to 684 nm allowing calculating the fluorescence ratio (Rf) prepared according as described hereinabove. Consistently with previous published data on neutrophils (Jin L et al. Biophys J; 2006), the Rf was higher after depletion compared to control platelets (measures on at least 5 platelets of four different donors; p=0.045) (Panel A).

P-selectin = assay: Expression of platelet activation marker P-selectin on washed platelets; type: cell-based; details: 10 mM, 30 minutes, room temperature; after 10 μM TRAP or 50 μM A23187
[8] = tested on: activated GpIIbIIIa receptors; assay: Activation of the activated GpIIbIIIa receptors on washed platelets; type: cell-based; details: 10 mM, 30 minutes, room temperature; after 10 μM TRAP or 50 μM A23187
[9] = 10 mM, room temperature, during incubation, N=3

## CNc1ccc2oc(C[C@H]3O[C@@]4(CC[C@H]3C)O[C@H]([C@H](C)C(=O)c3ccc[nH]3)[C@H](C)C[C@H]4C)nc2c1C(=O)O [A23187]
Platelets [1]; agonist: 10 μM TRAP or 50 μM A23187, p<0.05
  Rf vs. non activated platelets incubated with TBS: significantly increased
Platelets [2]
  fluorescence intensities between 515 and 600 nm (more ordered phases) upon activation: decrease

## CC(C)c1c(C(=O)Nc2ccccc2)c(-c2ccccc2)c(-c2ccc(F)cc2)n1CC[C@@H](O)C[C@@H](O)CC(=O)O [atorvastatin]
Platelets [3]; 20 hyperlipidemic patients, compared value 9.2+/-0.1, p=0.01
  Rf (MLO in platelets): 8.8+/−0.1
Platelets [3]; compared value 12.8+/-0.5, p=0.09
  effects of the cholesterol depletion on the MLO (Rf): 11.7+/−0.2

## COC(=O)[C@H](c1ccccc1Cl)N1CCc2sccc2C1 [clopidogrel]
Platelets [4]; Group A: clopidogrel 300 mg the day before + 75 mg the morning of the procedure, before 8.80+/-0.2, p<0.001
  ratio of fluorescence (Rf) after administration of clopidogrel: 8.68+/−0.22
Platelets [4]; Group B: clopidogrel 600 mg the morning of (2 hours before) the procedure, before 8.90+/-0.24, p=0.006
  ratio of fluorescence (Rf) after administration of clopidogrel: 8.77+/−0.27
Platelets [4]; Group C: clopidogrel 600 mg the day before and 600 mg the morning of the procedure, before 8.69+/-0.29, p=0.88
  ratio of fluorescence (Rf) after administration of clopidogrel: 8.69+/−0.21
Platelets [5]
  platelet sub-population (Population 2), about 0.46% of platelets before treatment: inhibited

## C=C1[C@@H](C)[C@H]2[C@H](Cc3ccccc3)NC(=O)[C@]23[C@H](OC(C)=O)/C=C/[C@@](C)(O)C(=O)[C@@H](C)C/C=C/[C@H]3[C@@H]1O [cytochalasin D]
Platelets [6]
  generation of the high Rf platelet population during the shear treatment: abrogated

## CCCCC[C@@H](O)[C@H]1C(=O)O[C@H](C)[C@@H](O)/C=C/C=C/C=C/C=C/C=C(\C)[C@@H](O)C[C@H](O)C[C@H](O)C[C@H](O)C[C@H](O)C[C@H](O)C[C@@H]1O [filipin]
Platelets [1]; platelets, 30 minutes at 37° C., different concentrations, N=5
  Rf measured by flow cytometry: dose-dependency

## CN[C@@H]1C[C@H]2O[C@@](C)([C@@H]1OC)n1c3ccccc3c3c4c(c5c6ccccc6n2c5c31)C(=O)NC4 [staurosoprine]
cells; FIG. 17 panel G
  total proportion of intact cells after induction of apoptosis: decreases regularly
cells; FIG. 17 panel H
  time at which the concentration in microparticles is maximal: 24 h

## Methyl-β-cyclodextrin
Platelets [1]; 10 mM, 37° C., 30 min, 10 μM di-4-ANEPPDHQ
  fluorescence intensity (575 and 675 nm) versus control undepleted platelets: shifted to lower values
Platelets [1]; 10 mM, 30 minutes, room temperature, p<0.05 to p<0.001
  Rf vs. control platelets: increased
Platelets [1]; 10 mM, room temperature
  time of cholesterol depletion after which the fluorescence ratio measurement is substantially stable: 30 min
Platelets [1]; [9]
  fluorescence associated to the more ordered membrane (575 nm): decreased
  fluorescence emitted at 675 nm: remained stable
Platelets [1]; 10 mM, room temperature, N=3
  ratio of fluorescence (Rf) during the incubation: increased
Platelets [1]; cholesterol depletion 10 mM, 37° C., 30 min, N=5
  fluorescence ratio (Rf) calculated from flow cytometry data: increased
Platelets [7]
  Rf by confocal microscopy compared to control platelets: higher
P-selectin
  expression of platelet activation marker P-selectin: decreased
[8]
  activation of the activated GpIIbIIIa receptors: decreased

## thrombin
Platelets [2]; 0.5 U/mL, 30 minutes at 37 C
  fluorescence at wavelengths larger than 660 nm compared to controls: increased significantly
  fluorescence between 530 and 585 nm compared to controls: decreased significantly
Platelets [2]; Thrombin 0.5 U/ml, A23187 10 μM, Thrombin 0.5 U/ml/Convulxin 500 ng/ml, FIG. 15
  fluorescence intensities between 515 and 600 nm (more ordered phases) upon activation: decrease
